Columns and labels:
HEK293 cells = experiment: MTT analysis of cell survival rate after ICG and near-infrared light irradiation; format: cell-based, human; conditions: ICG at different concentrations + near-infrared light (780 nm) irradiation
Description: (§1) After administering ICG and near-infrared light (780 nm) excitation and irradiation to HEK293 cells and HT-1080-1B3 cells, observing the cell survival rates of different concentration groups by MTT analysis.

mycoplasma [1] = experiment: RT-PCR of mycoplasma DNA in HT1080-1B3 cells after ICG light treatment; format: cell-based; conditions: HT-1080-1B3 cells (overexpress OATP1B3); 50 μg/mL indocyanine green + 780 nm laser, 10 minutes
Procedure: (§2) (A) After HEK293 cells are treated with 50 μg/mL ICG and irradiated with near-infrared light excitation, the expression level of mycoplasma DNA in each group was observed by RT-PCR and DNA electrophoresis. (B) Results of DNA electrophoresis were quantitated by the Image J software (p-value: *<0.05, **<0.01, and ***<0.001).
(§3) HT1080-1B3 and HEK293 cells were collected through trypsin-EDTA reaction and then seeded into a six-well plate at a cell number of 3×10^5 cells/well. The next day, a working concentration of 50 μg/mL of ICG was added to each well, and the reaction took place in the dark at 37° C. for 1 hour. After the reaction was completed, the cells were irradiated with near-infrared light of 780 nm wavelength for 10 minutes, the supernatant was removed, and the cells were washed twice with PBS. Then, the cells were collected into a 1.5 mL test tube with trypsin-EDTA, 100 μL KAPA rapid extraction buffer was added to the test tube, and the test tube was placed in a dry bath at 75° C. for 10 minutes and at 95° C. for 5 minutes. Then, DNA samples were prepared according to the operating manual of the e-Myco™ VALID Mycoplasma PCR detection kit, and PCR reaction was performed by PCR instrument (Applied Biosystems) under setting conditions (30 cycles: 95° C./3 minutes, 95° C./15 seconds, 55° C./15 seconds, 72° C./20 seconds and 72° C./1 minute). […]

mycoplasma [2] = experiment: DAPI staining of mycoplasma in HEK293 cells after ICG light treatment; format: cell-based; conditions: 50 μg/mL ICG + 780 nm laser, 10 minutes
Procedure: (§4) After HEK293 cells are treated with 50 μg/mL ICG and irradiated with near-infrared light excitation, the distribution of mycoplasma in each group was observed by DAPI staining (the red arrow indicates the expression position of mycoplasma). CTL: control group; −Laser: not excited by laser; +Laser: excited by laser.
(§5) First, HT1080-1B3 and HEK293 cells were collected through trypsin-EDTA reaction and then seeded into a six-well plate at a cell number of 3×10^5 cells/well. The next day, a working concentration of 50 μg/mL of ICG was added to each well, and the reaction took place in the dark at 37° C. for 1 hour. After the reaction was completed, the cells were irradiated with near-infrared light of 780 nm wavelength for 10 minutes. The supernatant was removed, and the cells were washed twice with PBS. Then, a working concentration of 1 μg/ml DAPI was added to each well, and the reaction took place in the dark at room temperature for 15 minutes. Finally, washed twice with PBS, and the quantitative changes of stained mycoplasma chromosomes were observed under the UV light mode of an inverted fluorescence microscope (Nikon).

mycoplasma [3] = experiment: RT-PCR of mycoplasma DNA in HEK293 cells after ICG light treatment; format: cell-based; conditions: 50 μg/mL ICG + 780 nm laser, 10 minutes
Procedure: as §2, §3

HT-1080-1B3 cells = experiment: MTT analysis of cell survival rate after ICG and near-infrared light irradiation; format: cell-based; conditions: ICG at different concentrations + near-infrared light (780 nm) irradiation
Description: as §1

mycoplasma [4] = experiment: DAPI staining of mycoplasma in HT1080-1B3 cells after ICG light treatment; format: cell-based; conditions: HT-1080-1B3 cells (overexpress OATP1B3); 50 μg/mL indocyanine green + 780 nm laser, 10 minutes
Procedure: as §4, with “HT1080-1B3” for “HEK293”
as §5

CC1(C)C(/C=C/C=C/C=C/C=C2\N(CCCCS(=O)(=O)O)c3ccc4ccccc4c3C2(C)C)=[N+](CCCCS(=O)(=O)[O-])c2ccc3ccccc3c21 [ICG, Indocyanine green]
cell survival rate (MTT analysis) (HEK293 cells): no negative impact on cells | expression level of mycoplasma DNA (RT-PCR, DNA electrophoresis) (mycoplasma [1]): no expression level of mycoplasma DNA was observed | number of mycoplasma bacteria (DAPI staining) (mycoplasma [2]): significantly reduced | expression level of mycoplasma DNA (RT-PCR, DNA electrophoresis) (mycoplasma [3]): significantly reduce | cell survival rate (MTT analysis) (HT-1080-1B3 cells): no negative impact on cells | number of mycoplasma bacteria (DAPI staining) (mycoplasma [4]): disappears
